Test results taken from US12508265B2, “Methods and compositions for reducing radiation induced toxicity” (Tosk, Inc., priority 2018, dated 2025).
Read-outs that look alike come from different tables or passages of the source.

Experiments:
[1] = Plasma concentration profile over 8 hours in mice (LC/MS); assay type: in vivo, CD-1 Female Mice; settings: mouse plasma; for half-life: female, CD-1, read-out: Elimination half-life (converted)
Experimental: FIG. 3 depicts a set of data expressing plasma concentration profile over 8 hours in mice administered either 60 mg/kg of TK-112690 ip or 240 mg/kg po by gavage. Plasma samples from 3 animals/timepoint were analyzed. CD-1 Female Mice (n=3) were dosed with either 60 (ip) or 240 (po) mg/kg TK-112690 in PBS. Blood samples were obtained at the designated timepoints, and the samples analyzed for drug using LC/MS.

[2] = tested on: surviving regenerating intestinal crypts; assay: Small intestinal crypt survival in murine total-body irradiation (TBI) model of intestinal mucositis; assay type: in vivo, Mouse (Mus musculus) C57BL6; settings: 12 Gy
From the text: The aim of the study whose results are provided in FIG. 2-6 was to determine the effect of TK-112690 on small intestinal crypt survival, in a murine total-body irradiation (TBI) model of intestinal mucositis.
• Animal Species: Mouse (Mus musculus) • Strain/substrain: C57BL6 (negative for Klebsiella oxytoca) • Source: Jackson Laboratories, MP-14, Bar Harbour, Me 04609, USA • Total animals: 40 males plus 5 spares • Body weight range: 18 to 25 g at start of treatment • Animal ages: 10 to 12 weeks at start of treatment • Housing: Animals were individually housed in rodent polycarbonated bins with bedding (irradiated Teklad sani chips) equipped with water bottles. Following group assignment, all cages were clearly labeled with a color-coded cage card indicating at least the study number and animal number. • Animal Identification: Each animal was individually identified using a permanent marker. • Group Animal Numbers: Each animal was given a four-number identification code. The first number corresponds to the respective dose group (1-4). The second number refers to whether the animal is the original animal, for instance the number 0, or a replacement, for instance 1, The third and fourth numbers identify the animal's rank within each group. • Room Environment: The animal room environment was set to maintain a temperature of 21±3° C., a relative humidity of 50±20%; and a light dark cycle of 12 hours light/12 hours dark, except during Study Plan-designated procedures. • Diet/Water: A standard certified commercial chow (Envigo Teklad Certified Irradiated Global Rodent Diet #2918C) was provided to the animals ad libitum except during designated procedures. Treats or fruits/vegetables were provided as part of the animal enrichment program. Concentrations of the contaminants (e.g., heavy metals, aflatoxin, organophosphate and chlorinated hydrocarbons) were routinely measured by the manufacturers. Acidified (pH between 2.75 and 3.25) municipal tap water (which had been exposed to ultraviolet light and purified by reverse osmosis) was provided to all animals ad libitum, except during designated procedures, via water bottles. Water bottles were changed at least every 3 days prior to irradiation and every 2 days after irradiation. Acidified water was changed every day after irradiation. During transportation and irradiation, animals were provided with food and water gel packs. Animals received water gel packs at least 2 days before transportation to acclimate to this type of hydration supplement and this procedure continued until necropsy. In addition, wetted food was provided to the animals on the bottom of the bins from Day 1 to the day of necropsy. • Acclimation: An acclimation period of at least 14 days was allowed between receipt of the animals and the start of dosing to accustom the animals to the laboratory environment. • Animal Assignment: During the acclimation period, animals were separately assigned to dose groups by a randomizing stratification system based on body weights. For logistical reasons, the animals were assigned to replicate subgroups, which may initiate dosing on different days.
The test item and reference item/vehicle are administered by intraperitoneal injection (ip) or oral gavage (po) 1.5 to 2 hour prior and 4 hours post irradiation and then twice daily (12 hours apart) for 4 consecutive days (Days 2 to 5), as shown below: […]

[3] = assay type: in vivo; settings: TK-112690 60 mg/kg ip or 240 mg/kg po bid plus uridine 60 mg/kg vs PBS; 12 Gy; ip and po combined; p=0.012
From the text: • Animal Species: Mouse (Mus musculus) • Strain/substrain: C57BL6 (negative for Klebsiella oxytoca) • Source: Jackson Laboratories, MP-14, Bar Harbour, Me 04609, USA • Total animals: 40 males plus 5 spares • Body weight range: 18 to 25 g at start of treatment • Animal ages: 10 to 12 weeks at start of treatment • Housing: Animals were individually housed in rodent polycarbonated bins with bedding (irradiated Teklad sani chips) equipped with water bottles. Following group assignment, all cages were clearly labeled with a color-coded cage card indicating at least the study number and animal number. • Animal Identification: Each animal was individually identified using a permanent marker. • Group Animal Numbers: Each animal was given a four-number identification code. The first number corresponds to the respective dose group (1-4). […] Concentrations of the contaminants (e.g., heavy metals, aflatoxin, organophosphate and chlorinated hydrocarbons) were routinely measured by the manufacturers. […]
Mortality checks were recorded concomitantly with the cage-side observations (see below for clinical signs), during all phases of the study. […]

With `Cc1cn2c(nc1=O)O[C@H]1[C@H](O)[C@@H](CO)O[C@H]12` [TK-112690] the AUC0→Last ([1]; 60 mg/kg ip in PBS) was “Approximately 30 (micrograms/mL)*hour”, the AUC0→Last ([1]; 240 mg/kg po by gavage in PBS) was ~40 (micrograms/mL)*hour and the half-life ([1]; 60 mg/kg ip in PBS) was ~2.5 h. The half-life ([1]; 240 mg/kg po by gavage in PBS) was ~2.5 h, the “number of surviving intestinal crypts in the jejunum, Z scores” value (shortened to “number … in the jejunum, Z scores”) ([2]; TK-112690 60 mg/kg ip bid plus uridine 60 mg/kg vs PBS, p=0.029) was “ameliorates the mucosal damage in the jejunum” and the “number … in the jejunum, Z scores” value ([2]; TK-112690 60 mg/kg ip or 240 mg/kg po bid (combined) plus uridine 60 mg/kg vs PBS, p=0.007) was “minimizes the mucosal damage in the jejunum”. The “number of surviving intestinal crypts (jejunum, duodenum, ileum), Z scores” value ([2]; TK-112690 60 mg/kg ip or 240 mg/kg po bid plus uridine 60 mg/kg vs PBS, p=0.03) was “lessens the mucosal damage associated with radiation treatment”, the “number of surviving intestinal crypts in the duodenum, Z scores” value ([2]; TK-112690 60 mg/kg ip or 240 mg/kg po bid plus uridine 60 mg/kg vs PBS, p=0.046) was “ameliorates the mucosal damage in the duodenum” and the “number … in the jejunum, Z scores” value ([2]; TK-112690 240 mg/kg po bid plus uridine 60 mg/kg vs PBS, p=0.041) was “ameliorates the mucosal damage in the jejunum”. The “difference in body weight between pre-treatment and day 6 (Z scores)” value [3] was “modest, highly statistically significant (p=0.012) protection from weight loss”.
